Where a name gives a salt, the structure may show the parent alone. Read-outs that look alike come from different tables or passages of the source.
Assays:
[1] = system: Plasmodium falciparum strain 3D7; experiment: Growth inhibition assay with asexual Plasmodium falciparum (HRP2 ELISA); format: cell-based; details: for Fold differences, 6 day-assays: IC50 3D7 versus A1-H.1, 6 days; for Fold differences, 3 day-assays: IC50 3D7 versus A1-H.1, 3 days
[2] = system: HepG2 cells; experiment: Cytotoxicity, neutral red assay; format: cell-based, human; details: for IC50: read-out: IC50 (μM) in HepG2 cells; for SI 3D7: selectivity index HepG2 versus P. falciparum 3D7; for SI A1-H.1: selectivity index HepG2 versus P. knowlesi A1-H.1
[3] = system: Plasmodium falciparum Dd2 (multidrug-resistant); experiment: Growth inhibition assay, resistant strain Dd2; format: cell-based; details: read-out: IC50, Dd2
[4] = system: Plasmodium falciparum K1 (multidrug-resistant); experiment: Growth inhibition assay, resistant strain K1; format: cell-based; details: read-out: IC50, K1
[5] = system: Plasmodium falciparum 7G8 (chloroquine resistant); experiment: Growth inhibition assay, resistant strain 7G8; format: cell-based; details: read-out: IC50, 7G8
[6] = system: mature (stage IV-V) Plasmodium falciparum gametocytes (NF54); experiment: In vitro activity against mature gametocytes (ATP production, BacTiterGlo); format: cell-based; details: 48 h
[7] = system: Plasmodium falciparum strain 3D7; experiment: Apicoplast as target: growth inhibition with and without IPP supplementation; format: cell-based; details: 3D7, 6 days
[8] = system: Plasmodium falciparum strain 3D7; experiment: Ionophoric activity assay: growth inhibition with KCl or MgCl2 supplementation; format: cell-based
[9] = system: Mycobacterium bovis; details: cited from earlier work
[10] = system: Plasmodium falciparum 3D7 and Dd2 asexual stages; experiment: Thin blood smear microscopy (Giemsa); details: 1 nM for 6 h
Procedure: Then, thin blood smears were prepared, fixed in 100% methanol for 10 seconds, and stained with Giemsa (Merck) solution (5%) for 20 minutes. The slides were washed and observed under a Leica DMBL microscope, and pictures were taken using a ProgRes C10 camera and software (Jenoptik), at 100× magnification.

[11] = Plasmodium falciparum, 72 h, P. falciparum 3D7, 3 days of incubation, read-out: IC50, 3 day-assays, 3D7
[12] = Plasmodium falciparum, 144 h, P. falciparum 3D7, 6 days of incubation, read-out: IC50, 6 day-assays, 3D7
[13] = Plasmodium falciparum, 3D7, 72 h, read-out: IC50, 3 day-assays, 3D7
[14] = Plasmodium falciparum, 3D7, 144 h, read-out: IC50, 6 day-assays, 3D7
[15] = Plasmodium falciparum, NF54, stage IV and V gametocytes

For `CN(C)[C@@H]1C(O)=C(C(N)=O)C(=O)[C@@]2(O)C(O)=C3C(=O)c4c(O)ccc(Cl)c4[C@@](C)(O)[C@H]3C[C@@H]12` [Chlortetracycline], the IC50 [1, 11] was > 18 µM and the IC50 [1, 12] was > 18 µM.

For `CO[C@@H]1[C@@H](O[C@@H]2O[C@H](C)[C@@H](O[C@H]3C[C@@](C)(O)[C@@H](OC(=O)CC(C)C)[C@H](C)O3)[C@H](N(C)C)[C@H]2O)[C@@H](CC=O)C[C@@H](C)[C@@H](O)/C=C/C=C/C[C@@H](C)OC(=O)C[C@H]1OC(C)=O` [Josamycin], the “Fold differences, 6 day-assays” value [1] was 2.3, the IC50 [1, 11] was > 18 µM and the IC50 [1, 12] was 0.388 ± 0.185 µM.

In the case of `CON(C)Cc1ccc(O)c2c1C[C@H]1C[C@H]3[C@H](N(C)C)C(O)=C(C(N)=O)C(=O)[C@@]3(O)C(O)=C1C2=O` [Sarecycline, Sarecycline hydrochloride], the “Fold differences, 3 day-assays” value [1] is reported as 7.1, the “Fold differences, 6 day-assays” value [1] is reported as 0.26 and the IC50 [1, 13] is reported as 13.4 ± 1.05 µM. It also gave an IC50 [1, 14] of 0.244 ± 0.136 µM.

For `CC(C)[C@@H](N)C(=O)O[C@H](C)[C@@H]1C/C=C\CC[C@H](O)C(C)(C)[C@@H]2CC[C@@H](C)[C@@]3(O2)O[B-]24O[C@@H](C(=O)O1)[C@]1(O[C@@H](CC[C@H]1C)C(C)(C)[C@H](O)CCC[C@@H]1C[C@H](OC(=O)[C@@H]3O2)[C@@H](C)O1)O4.[H+]` [Boromycin], the IC50 ([1]; 3D7, 3 days of incubation, comparator for resistant strains, read-out: IC50, 3D7 (Table 4)) was 0.0009 ± 0.0001 µM, the “Fold differences, 3 day-assays” value [1] was 0.15 and the “Fold differences, 6 day-assays” value [1] was 0.29. For the same compound, the IC50 ([1]; P. falciparum 3D7, 3 days of incubation, read-out: IC50, 3 day-assays, 3D7) was 0.0009 ± 0.0001 µM, the IC50 ([2]; HepG2, 24 hours drug incubation, neutral red) was 1250 ± 230 µM and the “selectivity index (SI)” value ([2]; HepG2 versus Plasmodium) was “higher than 200,000”. The “SI 3D7” value [2] was 1,388,000, the “SI A1-H.1” value [2] was 211,864 and the IC50 ([3]; Dd2, 3 days of incubation) was 0.0006 ± 0.0004 µM. It also gave an IC50 ([4]; K1, 3 days of incubation) of 0.0007 ± 0.0001 µM, an IC50 ([5]; 7G8, 3 days of incubation) of 0.0004 ± 7e-05 µM and an IC50 ([6]; stage IV and V gametocytes) of 0.0085 ± 0.0036 µM. The IC50 ([7]; supplemented with IPP, read-out: IC50, IPP-supplemented) was 0.0014 µM, the IC50 ([7]; without IPP, read-out: IC50, control without IPP) was 0.0009 µM and the IC50 ([8]; 3D7, 3 days, KCl 220 μg/ml, read-out: IC50, KCl supplemented) was 2.1 ± 0.2 nM. The IC50 ([8]; 3D7, 3 days, MgCl2 220 μg/ml, read-out: IC50, MgCl2 supplemented) was 0.2 nM, the IC50 ([8]; 3D7, 3 days, no supplementation, read-out: IC50 (in nM) control) was 0.7 ± 0.1 nM and the “increase of IC50 by supplementation of KCl” value ([8]; KCl at 220 μg/mL versus control) was 3 fold. For the same compound, the “boromycin activity with external KCl” value ([9]; KCl 20 mg/mL) was 10%, the “boromycin activity without added KCl” value ([9]; before addition of KCl) was 50% and the “parasite morphology, strain 3D7” value ([10]; 3D7) was “pyknotic appearance”. For the same compound, the “parasite morphology, strain Dd2” value ([10]; Dd2) was “pyknotic appearance”.

For `CN(C)c1cc(CNCC(C)(C)C)c(O)c2c1C[C@H]1C[C@H]3[C@H](N(C)C)C(O)=C(C(N)=O)C(=O)[C@@]3(O)C(O)=C1C2=O` [Omadacycline], the “Fold differences, 3 day-assays” value [1] was 7.3, the “Fold differences, 6 day-assays” value [1] was 0.86 and the IC50 [1, 11] was 8.44 ± 0.618 µM. It also gave an IC50 [1, 12] of 0.248 ± 0.109 µM.

`CN(C)c1ccc2nc3ccc(=[N+](C)C)cc-3sc2c1` [methylene blue, Methylene Blue] showed an IC50 [6, 15] of 0.284 ± 0.035 µM.

For `CN(C)[C@@H]1C(O)=C(C(N)=O)C(=O)[C@@]2(O)C(O)=C3C(=O)c4c(O)ccc(Cl)c4[C@@H](O)[C@H]3C[C@@H]12` [Demeclocycline], the “Fold differences, 6 day-assays” value [1] was 1.06, the IC50 [1, 11] was > 18 µM and the IC50 [1, 12] was 0.41 ± 0.165 µM.

`CC[C@H](C)[C@H](NC(=O)[C@H]([C@@H](C)CC)N(C)C(C)=O)C(=O)N[C@H](C(=O)N[C@@H](CC(C)C)C(=O)[C@@]1(C)CO1)[C@@H](C)O` [epoxomicin] gave an IC50 [6, 15] of 0.0152 ± 0.0034 µM.

In the case of `CCN(CC)CCCC(C)Nc1ccnc2cc(Cl)ccc12` (centres unmarked) [Chloroquine, Chloroquine diphosphate], the “Fold differences, 3 day-assays” value [1] is reported as 0.57, the “Fold differences, 6 day-assays” value [1] is reported as 0.61 and the IC50 ([1]; Plasmodium falciparum, 3D7, 72 h, read-out: IC50, 3D7 (Table 4)) is reported as 0.0084 ± 0.0049 µM. It also gave an IC50 [1, 13] of 0.0084 ± 0.0049 µM, an IC50 [1, 14] of 0.0104 ± 0.0048 µM and an IC50 ([2]; Homo sapiens, HepG2, 24 h) of 153 µM. For the same compound, the “SI 3D7” value [2] was 18,214, the “SI A1-H.1” value [2] was 10,551 and the IC50 ([3]; Plasmodium falciparum, DD2, 72 h) was 0.302 ± 0.119 µM. For the same compound, the IC50 ([4]; Plasmodium falciparum, K1, 72 h) was 0.401 ± 0.0283 µM, the IC50 ([5]; Plasmodium falciparum, 7G8, 72 h) was 0.304 ± 0.0182 µM and the “increase of IC50 by supplementation of KCl” value [8] was “no difference was observed”. The IC50 ([8]; Plasmodium falciparum, 3D7, 72 h, read-out: IC50 (in nM) control) was 12 ± 0.8 nM, the IC50 ([8]; Plasmodium falciparum, 3D7, 72 h, read-out: IC50, KCl supplemented) was 11.6 ± 1.4 nM and the IC50 ([8]; Plasmodium falciparum, 3D7, 72 h, read-out: IC50, MgCl2 supplemented) was 2.2 nM.

In the case of `C=C1c2cccc(O)c2C(=O)C2=C(O)[C@]3(O)C(=O)C(C(N)=O)=C(O)[C@@H](N(C)C)[C@@H]3[C@@H](O)[C@H]12` [Methacycline], the “Fold differences, 6 day-assays” value [1] is reported as 1.2, the IC50 [1, 11] is reported as > 18 µM and the IC50 [1, 12] is reported as 3.72 µM.

In the case of `CO[C@H]1C[C@H](O[C@H]2[C@H](C)[C@@H](O[C@@H]3O[C@H](C)C[C@H](N(C)C)[C@H]3OC(C)=O)[C@@H](C)C[C@@]3(CO3)C(=O)[C@H](C)[C@@H](OC(C)=O)[C@@H](C)[C@@H](C)OC(=O)[C@@H]2C)O[C@@H](C)[C@@H]1OC(C)=O` [Troleandomycin], the IC50 [1, 11] is reported as > 18 µM and the IC50 [1, 12] is reported as > 18 µM.

For `CN(C)[C@@H]1C(O)=C(C(N)=O)C(=O)[C@@]2(O)C(O)=C3C(=O)c4c(O)c(NC(=O)CN5CCCC5)cc(F)c4C[C@H]3C[C@@H]12` [Eravacycline], the “Fold differences, 3 day-assays” value [1] was 1.08, the “Fold differences, 6 day-assays” value [1] was 0.4 and the IC50 [1, 13] was 2.51 ± 0.55 µM. The IC50 [1, 14] was 0.0051 µM.

In the case of `C[C@H]1c2cccc(O)c2C(=O)C2=C(O)[C@]3(O)C(=O)C(C(N)=O)=C(O)[C@@H](N(C)C)[C@@H]3[C@@H](O)[C@@H]21` [Doxycycline, Doxycycline Hyclate], the “Fold differences, 3 day-assays” value [1] is reported as 5.1, the “Fold differences, 6 day-assays” value [1] is reported as 0.58 and the IC50 [1, 11] is reported as 9.58 ± 2.76 µM. It also gave an IC50 [1, 12] of 0.386 ± 0.292 µM.

For `CN(C)[C@@H]1C(O)=C(C(=O)NCNCCCC[C@H](N)C(=O)O)C(=O)[C@@]2(O)C(O)=C3C(=O)c4c(O)cccc4[C@@](C)(O)[C@H]3C[C@@H]12` [Lymecycline], the “Fold differences, 6 day-assays” value [1] was 1, the IC50 [1, 13] was > 18 µM and the IC50 [1, 14] was 1.12 ± 0.247 µM.

For `CN(C)c1ccc(O)c2c1C[C@H]1C[C@H]3[C@H](N(C)C)C(O)=C(C(N)=O)C(=O)[C@@]3(O)C(O)=C1C2=O` [Minocycline, Minocycline hydrochloride], the “Fold differences, 3 day-assays” value [1] was 3, the “Fold differences, 6 day-assays” value [1] was 0.56 and the IC50 [1, 11] was 9.39 ± 4.35 µM. The IC50 [1, 12] was 0.0835 ± 0.025 µM.

For `C=C1c2c(Cl)ccc(O)c2C(=O)C2=C(O)[C@]3(O)C(=O)C(C(N)=O)=C(O)[C@@H](N(C)C)[C@@H]3[C@@H](O)[C@H]12` [Meclocycline], the “Fold differences, 6 day-assays” value [1] was 0.19, the IC50 [1, 13] was > 18 µM and the IC50 [1, 14] was 0.292 ± 0.041 µM.

With `CO[C@H]1C[C@H](O[C@H]2[C@H](C)[C@@H](O[C@@H]3O[C@H](C)C[C@H](N(C)C)[C@H]3O)[C@@H](C)C[C@@]3(CO3)C(=O)[C@H](C)[C@@H](O)[C@@H](C)[C@@H](C)OC(=O)[C@@H]2C)O[C@@H](C)[C@@H]1O` [Oleandomycin] the IC50 [1, 11] was 8.19 ± 3.85 µM and the IC50 [1, 12] was > 18 µM.

Source: patent US20240277738A1, “GAMETOCYTOCIDAL COMPOUND” (Eberhard Karls Universität Tübingen Medizinische Fakultãt, priority 2021, published 2024)
